Assay: xn = mol fraction of the nth substance listed
Conditions: 100 kPa

C[N+](C)(C)CCC[N+]1(C)CCCCC1.N#C[N-]C#N.N#C[N-]C#N + CC#N
viscosity [mPa·s]
Conditions	288.15 K	293.15 K	298.15 K	303.15 K	308.15 K	313.15 K	318.15 K	323.15 K	328.15 K	333.15 K
x1 = 0.0999	3.99	–	3.42	3.18	–	2.81	–	2.54	2.43	2.32
x1 = 0.2001	17.4	15.1	13.2	11.6	10.3	–	–	7.49	–	6.16
x1 = 0.3001	56.9	45.9	–	31.4	–	22.7	19.6	–	15.4	13.7
x1 = 0.3998	146	112	87.3	–	–	46.6	39.3	33.3	28.6	24.8
x1 = 0.5002	334	243	–	139	–	87	–	58.2	–	–
x1 = 0.6	679	466	322	246	185	145	114	–	–	62.3
x1 = 0.7001	1177	729	508	370	274	210	–	–	105	85.5
x1 = 0.7996	–	1390	900	623	449	329	246	193	152	122
x1 = 0.8998	3992	2477	1610	1085	760	–	400	303	233	–
x1 = 1	7553	–	–	1837	1224	856	–	460	350	270

C[N+](C)(C)CCC[n+]1ccccc1.N#C[N-]C#N.N#C[N-]C#N + CC#N
viscosity [mPa·s]
Conditions	x1 = 0.0999	x1 = 0.1999	x1 = 0.2998	x1 = 0.3997	x1 = 0.4999	x1 = 0.6002	x1 = 0.7001	x1 = 0.7998	x1 = 0.8997	x1 = 1
283.15 K	4.14	14.2	52.8	131	245	474	–	1385	2375	7557
288.15 K	3.75	12.3	42.2	98	175	321	554	848	–	–
293.15 K	3.45	–	34.5	–	129	226	371	562	850	–
298.15 K	3.21	9.55	28.7	59.8	98	166	264	382	–	1306
303.15 K	–	8.55	–	48.3	76.3	125	192	–	392	831
308.15 K	2.83	–	21	39.6	61.3	96.7	146	200	286	558
313.15 K	2.67	7.03	18.2	33.3	50	76.6	109	145	213	386
318.15 K	2.54	6.43	–	28.2	43.5	63.9	89.7	118	161	281
323.15 K	–	5.91	14.1	24.2	36.7	51.7	70.9	91.6	123	–
328.15 K	2.32	5.47	12.5	21	30.6	43.3	57.6	73.2	95.6	162
333.15 K	2.23	–	11.2	18.4	27.6	–	48.5	60.3	75.3	127

CC#N + C[N+](C)(C)CCC[N+]1(C)CCCCC1.N#C[N-]C#N.N#C[N-]C#N
x2 = 0
Conditions	viscosity [mPa·s]
293.15 K	0.364
308.15 K	0.32
313.15 K	0.307
318.15 K	0.296
323.15 K	0.285
328.15 K	0.275

CC#N + C[N+](C)(C)CCC[n+]1ccccc1.N#C[N-]C#N.N#C[N-]C#N
x2 = 0
Conditions	viscosity [mPa·s]
283.15 K	0.401
288.15 K	0.382
293.15 K	0.364
298.15 K	0.348
303.15 K	0.333
308.15 K	0.32
313.15 K	0.307
318.15 K	0.296
323.15 K	0.285
